Where two headings read alike, the source gives them in different places.

Experiment [1] has as its system Phosphorylation of ERK1/2 in AsPC-1 cells. Put plainly: Phospho-ERK1/2 MSD Assay. The class given is cell-based, human. As to conditions: Homo sapiens, ASPC1, 2 h. The method in brief:
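Read-out: MSD electrochemiluminescent detection of phosphorylated ERK1/2 in whole-cell lysates, fitted to a 4-parameter logistic curve for IC50. Prior to lysis, AsPC-1 cells (25,000 per well) received a 2 h compound dose-response at 37 °C.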

In experiment [2] the test system is AsPC-1 cells. Briefly: AsPC-1 CTG Assay (CellTiter-Glo cell viability). The class given is cell-based, human. As to conditions: Homo sapiens, ASPC1, 72 h, first value of the cell, read-out: G12D/C/V Cell Proliferation CTG (72 h) AsPC-1. The procedure: AsPC-1 and SW620 CTG Assay Protocols
AsPC-1 (human pancreatic adenocarcinoma; ATCC CRL-1682) or SW620 (human colon adenocarcinoma; ATCC CCL-227) cells were cultured in RPMI 1640 medium containing 10% fetal bovine serum and 1× penicillin/streptomycin/L-glutamine. Cells were seeded in 384-well plates at a density of 3.33E+04 cells/mL and incubated at 37° C., 5% CO2, overnight. Serially-diluted compound or DMSO was added to the cells, and plates were incubated at 37° C., 5% CO2 for 72 h. Cell viability was measured using a CellTiter-Glo® Luminescent Cell Viability Assay kit (Promega) according to the manufacturer's protocol. The luminescence signal of treated samples was normalized to DMSO control, and data were analyzed using a 4-parameter logistic model to calculate IC50 values.
For orientation: ATP-based viability assays read luminescence as a measure of living cells.

Experiment [3] addresses His-tagged KRAS G12D protein (Homo sapiens (Human), UniProt P01116, G12D). Put plainly: KRAS G12D TR-FRET Assay. The class given is binding. The gist of the method: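 Each incubation ran at room temperature: enzyme with compound for 30 minutes, peptide for one hour, and detection reagents (0.4 nM europium anti-6×His, 5 nM streptavidin-d2) for one hour more. Protein and peptide stocks were each diluted to 20 nM before addition.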
For orientation: In TR-FRET formats the signal depends on donor and acceptor labels being close together.

Experiment [4] has as its target GDP-bound KRAS protein (aa 1-169), containing both G12D and C118A amino acid substitutions (Homo sapiens (Human), UniProt P01116, C118A/G12D). Briefly: KRAS G12D Coupled Nucleotide Exchange Assay. The format is biochemical.
Where [5] appears, read: read-out: 2 h p-ERK (AsPC-1 cells), IC50.
The mark [6] stands for this setting: read-out: KRAS G12D Binding IC50.
The mark [7] stands for this setting: read-out: KRAS G12D Coupled Exchange IC50.
Where [8] appears, read: read-out: 2 h p-ERK (AsPC-1 cells).

Sequence of His-tagged KRAS G12D protein (P01116 other isoform, or with tags, fused parts or gaps G12D): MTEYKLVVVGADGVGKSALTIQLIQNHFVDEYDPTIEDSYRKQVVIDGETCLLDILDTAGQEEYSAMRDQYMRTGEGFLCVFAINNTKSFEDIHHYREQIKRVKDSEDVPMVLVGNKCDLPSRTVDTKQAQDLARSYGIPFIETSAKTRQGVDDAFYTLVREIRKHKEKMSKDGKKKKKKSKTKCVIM
Sequence of GDP-bound KRAS protein (aa 1-169), containing both G12D and C118A amino acid substitutions (P01116 other isoform, or with tags, fused parts or gaps G12D/C118A): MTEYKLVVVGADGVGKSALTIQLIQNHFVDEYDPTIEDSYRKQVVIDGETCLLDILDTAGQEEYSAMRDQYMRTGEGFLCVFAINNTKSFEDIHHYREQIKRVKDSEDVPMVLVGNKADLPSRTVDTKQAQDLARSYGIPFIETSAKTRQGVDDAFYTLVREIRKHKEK

For `CC12COCCN(C1)c1nc(OC[C@@]34CCCN3C[C@H](F)C4)nc3cc(nnc13)-c1c(c(Cl)cc3[nH]ncc13)CCCOC(=O)O2` (stereo in doubt) [Example 362, (26R)-18-chloro-4-(((2R,7aS)-2-fluorotetrahydro-1H-pyrrolo[1,2-a]pyrrol-7a(5H)-yl)methoxy)-26-methyl-23,25,28-trioxa-1,3,5,8,9,14,15-heptaazahexacyclo[24.4.1.1~6,10~.0~2,7~.0~11,19~.0~12,16~]dotriaconta-2,4,6(32),7,9,11,13,16,18-nonaen-24-one], the IC50 was 133 nM in experiment [1] (setting [5]) and 1450 nM in experiment [2] (AsPC-1, 72 h).
Take `Fc1c2ncc3c(nc(OC[C@@]45CCCN4C[C@H](F)C5)nc13)N1CCC[C@H](C1)c1coc(n1)CCCc1c(Cl)cc3[nH]ncc3c1-2` [Example 157, (18R)-9-chloro-31-fluoro-25-(((2R,7aS)-2-fluorotetrahydro-1H-pyrrolo[1,2-a]pyrrol-7a(5H)-yl)methoxy)-15-oxa-5,6,22,24,26,30,33-heptaazaheptacyclo[25.3.1.1~14,17~.1~18,22~.0~2,10~.0~3,7~.0~23,28~]tritriaconta-1(31),2,4,7,9,14(33),16,23,25,27,29-undecaene]: the IC50 stood at 7 nM in experiment [1] (setting [5]) and 60 nM in experiment [2] (AsPC-1, 72 h).
The matching figures for `O=C1OCCc2c(Cl)cc3[nH]ncc3c2-c2ncc3c(nc(OC[C@@]45CCCN4C[C@H](F)C5)nc3c2F)N2CCC[C@]3(C[C@@H](CO3)O1)C2` [Example 315, (1S,4S)-11-chloro-33-fluoro-25-(((2R,7aS)-2-fluorotetrahydro-1H-pyrrolo[1,2-a]pyrrol-7a(5H)-yl)methoxy)-2,5,7-trioxa-14,15,20,24,26,28-hexaazaheptacyclo[26.3.1.1~1,4~.1~19,23~.0~10,18~.0~13,17~.0~22,27~]tetratriaconta-10,12,15,17,19(33),20,22,24,26-nonaen-6-one]: 20.8 nM and 23 nM.
With `C[C@]12C[C@]3(CN(CCO3)c3nc(OC[C@@]45CCCN4C[C@H](F)C5)nc4c(F)c(ncc34)-c3c(c(Cl)cc4[nH]ncc34)CCOC(=O)O1)C2` [Example 322, (1S,3S)-10-chloro-32-fluoro-24-(((2R,7aS)-2-fluorotetrahydro-1H-pyrrolo[1,2-a]pyrrol-7a(5H)-yl)methoxy)-3-methyl-4,6,30-trioxa-13,14,19,23,25,27-hexaazaheptacyclo[25.3.1.1~1,3~.1~18,22~.0~9,17~.0~12,16~.0~21,26~]tritriaconta-9,11,14,16,18(32),19,21,23,25-nonaen-5-one], the IC50 in experiment [3] (setting [6]) was 366 nM; in experiment [4] (setting [7]) it was 156 nM; in experiment [1] (setting [5]), 589 nM.
The like results for `Cn1ncc2cc(Cl)c3c(c21)-c1ncc2c(nc(OC[C@@]45CCCN4C[C@H](F)C5)nc2c1F)N1CCOC[C@H](C1)OC(=O)OCCC3` [Example 335, (26S)-18-chloro-32-fluoro-4-(((2R,7aS)-2-fluorotetrahydro-1H-pyrrolo[1,2-a]pyrrol-7a(5H)-yl)methoxy)-13-methyl-23,25,28-trioxa-1,3,5,9,13,14-hexaazahexacyclo[24.4.1.1~6,10~.0~2,7~.0~11,19~.0~12,16~]dotriaconta-2,4,6,8,10(32),11,14,16,18-nonaen-24-one] were, in that order, 44 nM, 9 nM and 1260 nM.
The matching figures for `O=C1OCCCc2c(Cl)cc3[nH]ncc3c2-c2ncc3c(nc(OC[C@@]45CCCN4C[C@H](F)C5)nc3c2F)N2CCCC[C@@](CF)(C2)O1` [Example 339, (26S)-18-chloro-32-fluoro-26-(fluoromethyl)-4-(((2R,7aS)-2-fluorotetrahydro-1H-pyrrolo[1,2-a]pyrrol-7a(5H)-yl)methoxy)-23,25-dioxa-1,3,5,9,14,15-hexaazahexacyclo[24.4.1.1~6,10~.0~2,7~.0~11,19~.0~12,16~]dotriaconta-2,4,6,8,10(32),11,13,16,18-nonaen-24-one]: 1350 nM, 501 nM and 826 nM.
As to `CN1CCN(c2nc3c4cnc(c(F)c4n2)-c2c(c(Cl)cc4[nH]ncc24)CCCOC(=O)O[C@@H]2COCCN3C2)CC1` [Example 347, (26S)-18-chloro-32-fluoro-4-(4-methyl-1-piperazinyl)-23,25,28-trioxa-1,3,5,9,14,15-hexaazahexacyclo[24.4.1.1~6,10~.0~2,7~.0~11,19~.0~12,16~]dotriaconta-2,4,6,8,10(32),11,13,16,18-nonaen-24-one], the IC50 in experiment [3] (setting [6]) was determined as 27 nM; in experiment [4] (setting [7]), 7 nM; in experiment [1] (setting [5]), 200 nM.
Regarding `[2H]C([2H])([2H])[C@@]12COCCN(C1)c1nc(OC[C@@]34CCCN3C[C@H](F)C4)nc3c(F)c(ncc13)-c1c(c(C)cc3[nH]ncc13)CCCOC(=O)O2` [Example 352, (26S)-32-fluoro-4-(((2R,7aS)-2-fluorotetrahydro-1H-pyrrolo[1,2-a]pyrrol-7a(5H)-yl)methoxy)-18-methyl-26-(~2~H_3_)methyl-23,25,28-trioxa-1,3,5,9,14,15-hexaazahexacyclo[24.4.1.1~6,10~.0~2,7~.0~11,19~.0~12,16~]dotriaconta-2,4,6,8,10(32),11,13,16,18-nonaen-24-one], the IC50 in experiment [4] (setting [7]) was 2 nM; in experiment [1] (setting [5]), 8.2 nM; in experiment [2] (AsPC-1, 72 h), 103 nM.
Regarding `Cc1cc2[nH]ncc2c2c1CCOC(=O)O[C@H]1C[C@]3(CCCN(C3)c3nc(OC[C@@]45CCCN4C[C@H](F)C5)nc4cc-2nnc34)C1` [Example 358, (1R,3S)-24-(((2R,7aS)-2-fluorotetrahydro-1H-pyrrolo[1,2-a]pyrrol-7a(5H)-yl)methoxy)-10-methyl-4,6-dioxa-13,14,19,20,23,25,27-heptaazaheptacyclo[25.3.1.1~1,3~.1~18,22~.0~9,17~.0~12,16~.0~21,26~]tritriaconta-9,11,14,16,18(32),19,21,23,25-nonaen-5-one], the IC50 is 24 nM in experiment [3] (setting [6]), 16 nM in experiment [4] (setting [7]) and 384 nM in experiment [1] (setting [5]).
For the molecule `CN1CCC(Oc2nc3c4cnc(c(F)c4n2)-c2c(c(Cl)cc4[nH]ncc24)CCCOC(=O)O[C@@H]2COCCN3C2)CC1.O=C(O)C(F)(F)F` [Example 370, (26S)-18-Chloro-32-fluoro-4-((1-methyl-4-piperidinyl)oxy)-23,25,28-trioxa-1,3,5,9,14,15-hexaazahexacyclo[24.4.1.1˜6,10˜.0˜2,7˜.0˜11,19˜.0˜12,16˜]dotriaconta-2,4,6,8,10(32),11,13,16,18-nonaen-24-one trifluoroacetate], the IC50 came out at 36 nM in experiment [3] (setting [6]), 18 nM in experiment [4] (setting [7]) and 708 nM in experiment [1] (setting [5]).
The matching figures for `O=C1OCCc2c(F)ccc3cccc(c23)-c2ncc3c(nc(OC[C@@]45CCCN4C[C@H](F)C5)nc3c2F)N2CCOC[C@H](C2)O1` [Example 371]: 8 nM, 4 nM and 239 nM.
For the molecule `Fc1c2ncc3c(nc(OC[C@@]45CCCN4C[C@H](F)C5)nc13)N1CCC[C@H](C1)c1cnc(o1)CCCc1c(Cl)cc3[nH]ncc3c1-2` [Example 387, (18R)-9-chloro-31-fluoro-25-(((2R,7aS)-2-fluorotetrahydro-1H-pyrrolo[1,2-a]pyrrol-7a(5H)-yl)methoxy)-33-oxa-5,6,15,22,24,26,30-heptaazaheptacyclo[25.3.1.1~14,17~.1~18,22~.0~2,10~.0~3,7~.0~23,28~]tritriaconta-1(31),2,4,7,9,14,16,23,25,27,29-undecaene], the IC50 in experiment [3] (TR-FRET, read-out: KRAS G12D Binding) stood at 8 nM; in experiment [4] (2 hours compound pre-incubation, read-out: KRAS G12D Coupled Exchange), 4 nM; in experiment [1] (setting [8]) it was 66.3 nM.
In the case of `O[C@@H]1CCOCCc2c(Cl)cc3[nH]ncc3c2-c2ncc3c(nc(OC[C@@]45CCCN4C[C@H](F)C5)nc3c2F)N2CCC[C@@H]1C2` [Example 404, (16R,17R)-9-Chloro-30-fluoro-24-(((2R,7aS)-2-fluorotetrahydro-1H-pyrrolo[1,2-a]pyrrol-7a(5H)-yl)methoxy)-13-oxa-5,6,21,23,25,29-hexaazahexacyclo[24.3.1.1~17,21~.0~2,10~.0~3,7~.0~22,27~]hentriaconta-1(30),2,4,7,9,22,24,26,28-nonaen-16-ol], the IC50 in experiment [1] (setting [8]) came out at 236 nM; in experiment [2] (AsPC-1 cells (G12D), 72 h), 1570 nM.

The values above are taken from patent US20240294551A1 (AMGEN INC., priority 2022, published 2024).
